The results in this text go back to patent US8748448B2, “Combination analgesic employing opioid agonist and neutral antagonist” (AIKO Biotechnology, priority 2007, dated 2014).

The data set in a line: Concentrations in plasma and brain tissue after i.p. injection (LC/MS/MS). The conditions noted are these: for plasma concentration as metabolite after the naltrexone dose: after naltrexone 1 mg/kg i.p.
Setting [1] is: 1 mg/kg i.p., 60 min after injection.
[2] abbreviates: 10 mg/kg i.p., 10 min after injection.
The mark [3] stands for this setting: 10 mg/kg i.p., 60 min after injection.

For the substance 6β-naltrexol, the Brain concentration worked out at 7 ± 6 ng/g (1 mg/kg i.p., 10 min after injection); 9 ± 1 ng/g under setting [1]; 89 ± 6 ng/g under setting [2]; 74 ± 14 ng/g under setting [3]. For the same substance, the Plasma concentration was determined as 61 ± 7 ng/mL (1 mg/kg i.p., 10 min after injection, mean±SD, n=3); 24 ± 28 ng/mL under setting [1]; 857 ± 122 ng/mL under setting [2]; 75 ± 25 ng/mL under setting [3]. Moreover, the “change of levels at 60 min from those measured at 10 min” value (after i.p. injection) is “had not changed”. The “plasma concentration as metabolite after the naltrexone dose” value reads like this: (10 min) 1.9 ng/mL; (60 min) 1.7 ng/mL. The “detectability as metabolite after the naltrexone dose” value (plasma and brain tissue, method sensitive to approximately 1 ng/mL (g)) is “detectable in plasma but not brain tissue”.
